Assays:
[1] = molecular target: T1, Son of sevenless homolog 1 (Homo sapiens) (UniProt Q07889); assay: Inhibition of SOS1 (unknown origin) at 500 nM
T1 sequence (whole entry): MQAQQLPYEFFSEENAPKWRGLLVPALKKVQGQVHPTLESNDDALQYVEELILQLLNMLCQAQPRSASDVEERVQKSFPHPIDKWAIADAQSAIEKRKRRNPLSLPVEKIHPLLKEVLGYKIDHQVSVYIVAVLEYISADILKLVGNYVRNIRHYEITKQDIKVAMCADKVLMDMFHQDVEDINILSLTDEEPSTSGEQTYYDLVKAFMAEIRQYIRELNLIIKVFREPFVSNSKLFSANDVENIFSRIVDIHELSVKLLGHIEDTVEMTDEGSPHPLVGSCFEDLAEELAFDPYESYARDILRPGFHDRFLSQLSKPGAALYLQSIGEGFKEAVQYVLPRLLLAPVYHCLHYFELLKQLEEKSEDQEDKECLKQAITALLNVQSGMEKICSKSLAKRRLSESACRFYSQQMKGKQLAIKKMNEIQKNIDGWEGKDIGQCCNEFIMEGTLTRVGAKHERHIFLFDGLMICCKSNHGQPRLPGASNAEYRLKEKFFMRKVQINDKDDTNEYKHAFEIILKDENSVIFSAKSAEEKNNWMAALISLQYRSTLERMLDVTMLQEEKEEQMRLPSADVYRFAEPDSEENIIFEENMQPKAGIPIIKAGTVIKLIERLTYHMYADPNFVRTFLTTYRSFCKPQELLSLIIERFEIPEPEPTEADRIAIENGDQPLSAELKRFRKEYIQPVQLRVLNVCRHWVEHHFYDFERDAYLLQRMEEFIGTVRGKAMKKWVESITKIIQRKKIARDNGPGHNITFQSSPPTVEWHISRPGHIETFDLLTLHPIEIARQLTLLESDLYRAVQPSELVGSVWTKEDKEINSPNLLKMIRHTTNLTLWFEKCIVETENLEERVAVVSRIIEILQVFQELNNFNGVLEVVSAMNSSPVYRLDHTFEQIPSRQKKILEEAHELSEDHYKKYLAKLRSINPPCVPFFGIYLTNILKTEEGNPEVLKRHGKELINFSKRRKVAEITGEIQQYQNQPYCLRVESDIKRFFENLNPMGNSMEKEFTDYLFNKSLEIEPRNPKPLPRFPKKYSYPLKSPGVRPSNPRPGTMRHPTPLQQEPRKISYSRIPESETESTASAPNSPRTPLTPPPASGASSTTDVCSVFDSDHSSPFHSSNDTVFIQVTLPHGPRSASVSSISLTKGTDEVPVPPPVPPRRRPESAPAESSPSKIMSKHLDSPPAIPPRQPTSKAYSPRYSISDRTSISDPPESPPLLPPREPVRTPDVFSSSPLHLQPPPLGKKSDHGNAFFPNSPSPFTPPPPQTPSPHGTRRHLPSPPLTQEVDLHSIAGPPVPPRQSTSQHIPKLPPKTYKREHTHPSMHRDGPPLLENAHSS

[2] = molecular target: T2, Son of sevenless homolog 1 (Homo sapiens, UniProt Q07889); assay: Inhibition of SOS1 (unknown origin)
T2 sequence (Q07889 whole entry): T1 sequence (whole entry)

[3] = test system: K562; assay: Antiproliferative activity against human K562 cells assessed as inhibition of cell proliferation; format: functional, cell-based
[4] = molecular target: Epidermal growth factor receptor (Homo sapiens) (UniProt P00533); assay: Inhibition of wild type EGFR (unknown origin) at 5000 nM
Chain of Epidermal growth factor receptor (Homo sapiens) (P00533 whole entry): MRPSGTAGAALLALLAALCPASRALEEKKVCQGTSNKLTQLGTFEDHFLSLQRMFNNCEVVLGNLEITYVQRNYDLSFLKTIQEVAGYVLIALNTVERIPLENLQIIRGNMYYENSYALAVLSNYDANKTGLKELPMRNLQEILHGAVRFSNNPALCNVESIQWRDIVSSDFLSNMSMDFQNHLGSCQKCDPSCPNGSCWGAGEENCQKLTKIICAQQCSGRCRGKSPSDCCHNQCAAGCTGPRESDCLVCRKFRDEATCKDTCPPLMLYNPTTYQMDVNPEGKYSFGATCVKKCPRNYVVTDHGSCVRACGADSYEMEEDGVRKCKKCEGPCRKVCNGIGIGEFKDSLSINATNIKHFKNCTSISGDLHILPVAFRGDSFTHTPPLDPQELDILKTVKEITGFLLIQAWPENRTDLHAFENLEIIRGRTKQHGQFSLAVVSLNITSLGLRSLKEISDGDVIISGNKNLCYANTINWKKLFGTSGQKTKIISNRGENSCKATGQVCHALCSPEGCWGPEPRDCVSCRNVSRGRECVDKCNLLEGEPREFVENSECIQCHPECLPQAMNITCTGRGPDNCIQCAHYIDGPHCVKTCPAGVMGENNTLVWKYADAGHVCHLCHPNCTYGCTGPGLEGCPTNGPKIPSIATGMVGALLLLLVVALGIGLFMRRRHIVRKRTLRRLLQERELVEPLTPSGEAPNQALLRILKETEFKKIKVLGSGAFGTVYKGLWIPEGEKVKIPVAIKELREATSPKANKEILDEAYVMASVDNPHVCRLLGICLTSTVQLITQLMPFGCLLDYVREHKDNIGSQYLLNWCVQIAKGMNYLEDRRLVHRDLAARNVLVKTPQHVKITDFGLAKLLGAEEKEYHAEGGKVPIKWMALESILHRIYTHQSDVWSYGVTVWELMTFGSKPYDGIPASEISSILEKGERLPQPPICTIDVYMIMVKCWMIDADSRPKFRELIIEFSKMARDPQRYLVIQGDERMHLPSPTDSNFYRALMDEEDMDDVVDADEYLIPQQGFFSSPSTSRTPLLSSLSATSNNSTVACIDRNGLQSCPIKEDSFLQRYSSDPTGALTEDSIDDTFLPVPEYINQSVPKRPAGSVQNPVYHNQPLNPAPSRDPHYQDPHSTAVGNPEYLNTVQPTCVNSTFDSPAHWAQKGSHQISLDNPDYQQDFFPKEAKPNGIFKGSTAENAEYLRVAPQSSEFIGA

[5] = test system: NCI-H838; assay: Antiproliferative activity against human NCI-H838 cells assessed as inhibition of cell proliferation; format: functional, cell-based

| Structure (SMILES) | inhibition [1] [%] | IC50 [2] [nM] | IC50 [3] [nM] | inhibition [4] [%] | IC50 [5] [nM] |
| --- | --- | --- | --- | --- | --- |
| CNCc1ccccc1-c1csc(C(C)Nc2nc(C)nc3cc4c(cc23)OCCO4)c1 (racemic) | 81.4 | 27 | 3490 | – | – |
| COc1cc2ncnc(NC(C)c3cc(-c4ccccc4CNCCO)cs3)c2cc1OC (racemic) | 97.5 | 18 | 4050 | – | – |
| Cc1nc(NC(C)c2cc(-c3ccccc3CNCCO)cs2)c2cc3c(cc2n1)OCCO3 (racemic) | 85.1 | 45 | 2480 | – | – |
| CNCc1ccccc1-c1csc(C(C)Nc2ncnc3cc(OC)c(OC)cc23)c1 (racemic) | 99 | 20 | 2210 | 38.1 | > 25000 |
| CNCc1ccccc1-c1csc(C(C)Nc2ncnc3cc4c(cc23)OCCO4)c1 (racemic) | 78.5 | 97 | 2870 | 22.2 | > 25000 |
| COc1cc2ncnc(NC(C)c3ccc(-c4ccccc4CNCCO)s3)c2cc1OC (racemic) | 99.1 | 8.5 | 890 | 20.7 | > 25000 |
| CC(Nc1ncnc2cc3c(cc12)OCCO3)c1cc(-c2ccccc2CNCCO)cs1 (racemic) | 80.2 | – | – | – | – |
| CNCc1ccccc1-c1ccc(C(C)Nc2nc(C)nc3cc4c(cc23)OCCO4)s1 (racemic) | 77.3 | – | – | – | – |
| COc1cc2ncnc(NC(C)c3cc(-c4ccccc4C(N)=O)cs3)c2cc1OC (racemic) | 33.7 | – | – | – | – |
| COc1cc2ncnc(NC(C)c3cc(-c4ccccc4N)cs3)c2cc1OC (racemic) | 61 | – | – | – | – |
| COc1cc2ncnc(NC(C)c3ccc(-c4ccccc4N)s3)c2cc1OC (racemic) | 75.2 | – | – | – | – |
| COc1cc2ncnc(NC(C)c3ccc(-c4ccccc4O)s3)c2cc1OC (racemic) | 43.9 | – | – | – | – |
| CNCc1ccccc1-c1csc([C@@H](C)Nc2nc(C)nc3cc(OC)c(OC)cc23)c1 [BAY-293] | – | – | 230 | – | – |

The next lines start with results.

| inhibition [1] [%] | Structure (SMILES) | IC50 [2] [nM] | IC50 [3] [nM] | inhibition [4] [%] | IC50 [5] [nM] |
| --- | --- | --- | --- | --- | --- |
| 79.4 | CC(Nc1ncnc2cc3c(cc12)OCCO3)c1ccc(-c2ccccc2CNCCO)s1 (racemic) | – | – | – | – |
| 98.7 | CNCc1ccccc1-c1ccc(C(C)Nc2ncnc3cc(OC)c(OC)cc23)s1 (racemic) | – | – | – | – |
| 75.9 | CNCc1ccccc1-c1ccc(C(C)Nc2ncnc3cc4c(cc23)OCCO4)s1 (racemic) | – | – | – | – |
| 65.7 | COc1cc2ncnc(NC(C)c3cc(-c4ccccc4O)cs3)c2cc1OC (racemic) | – | – | – | – |
| 38.7 | COc1cc2ncnc(NC(C)c3ccc(-c4ccccc4C(N)=O)s3)c2cc1OC (racemic) | – | – | – | – |
| 89.1 | Cc1nc(NC(C)c2ccc(-c3ccccc3CNCCO)s2)c2cc3c(cc2n1)OCCO3 (racemic) | – | – | – | – |
